# According to US10010541B2, “Modulation of tissue transglutaminase activation in disease” (The Board of Trustees of the Leland Stanford Junior …, priority 2014, dated 2018):
# System: proinflammatory cytokines IL-6, PAI-1 and MIP1α
# Experiment: circulating proinflammatory cytokines in LPS-induced murine sepsis (ELISA)
# Format: in vivo, mice
# Procedure: FIG. 3: The TG2 inhibitor CK996 reduces the proinflammatory cytokine load in septic mice at doses as low as 1.5 mg/kg: The graphs display the absolute circulating levels of the proinflammatory cytokines IL-6, PAI-1 and MIP1α in septic male BL6 mice as a function of the dose of intraperitoneally administered CK996 or ERW1041E. In each graph, the right y-axis depicts the relative levels of the respective cytokines over their background level in our control cohort. All septic mice in this study received lipopolysaccharide (LPS, 5 mg/kg i.v., at t=0) and either a TG2 inhibitor (CK996 or ERW1041E at 50, 15, 5.0 and 1.5 mg/kg i.p., at t=0 and 60 min) in vehicle (PBS with 5% DMSO, 2% Tween-80 and 2.5% hydroxypropyl-beta-cyclodextrin) or, for the septic control cohort, vehicle alone. An additional cohort defining the baseline cytokine levels received only intravenous vehicle and intraperitoneal inhibitor vehicle, respectively. At 3 hours the mice were euthanized and plasma collected in lithium heparin tubes. The levels of the respective proinflammatory cytokines were quantified using commercial ELISA kits according to the manufacturers' instructions. […]
# Having established that intraperitoneal administration of CK996 could suppress TG2 activity in septic mice, we next sought to determine whether this pharmacologic intervention had any effect on the circulating levels of the key proinflammatory cytokines in sepsis. To this end, we administered CK996 in doses of 1.5, 5.0, 15 or 50 mg/kg intraperitoneally to septic mice (5 mg/kg LPS, iv) and measured the level of the proinflammatory cytokines IL-6, PAI-1 and MIP1α in plasma that was collected at 3 hours after infusion of LPS.
# We therefore co-administered recombinant human thioredoxin protein (10 mg/kg, ip) along with CK996 (50 mg/kg, ip) to septic mice (5 mg/kg, iv) and quantified the load of proinflammatory cytokines as above.
smiles,measurement,setting,value
"O=C(N[C@@H]1C[C@@H](C(=O)NC[C@@H]2CC(Br)=NO2)N(C(=O)OCc2cnc3ccccc3c2)C1)c1cccnc1 [Compound 5, (2S,4R)-quinolin-3-ylmethyl 2-((((S)-3-bromo-4,5-dihydroisoxazol-5-yl)methyl)carbamoyl)-4-(nicotinamido)pyrrolidine-1-carboxylate]","circulating levels of IL-6, PAI-1 and MIP1α","septic mice (LPS 5 mg/kg iv), all doses tested (1.5, 5.0, 15 or 50 mg/kg ip), plasma at 3 hours",dramatically reduced
same,dose that reduces the proinflammatory cytokine load,"septic mice, ip at t=0 and 60 min",≤ 1.5 mg/kg
